ChEMBL document CHEMBL1122948, “3,4-Diphenyl-1H-pyrazole-1-propanamine antidepressants” (J Med Chem, 1985)

Tests used:
Assay type in all cases: functional
Rattus norvegicus [1] = organism: Rattus norvegicus; assay: In vitro inhibitory activity against [3H]-5-HT uptake into crude synaptosomes from whole rat brain.
Rattus norvegicus [2] = organism: Rattus norvegicus; assay: In vitro inhibitory activity against [3H]5-HT uptake into crude synaptosomes from whole rat brain.
Mus musculus [3] = assay: Effect on tetrabenazine-induced suppression of locomotor activity in the mouse after peroral administration
Mus musculus [4] = assay: Prevention of reserpine-induced ptosis in the mouse after peroral administration

CN(C)CCCN1c2ccccc2CCc2ccccc21 [IMIPRAMINE]
IC50 (Rattus norvegicus [1]): 3100 nM | IC50 (Rattus norvegicus [2]): 240 nM | MED (Mus musculus [3]): 4 (mg of base) kg-1 | MED (Mus musculus [4]): 4 (mg of base) kg-1
